The record followed here is US4118506A, “Pharmaceutical compositions containing 1,3-dithiol-2-ylidene malonate derivatives” (Nihon Nohyaku Co., Ltd., priority 1976, dated 1978).

The test system of experiment [1] is acute liver damage induced by allyl alcohol. Nature of the experiment: protective effect on acute liver damage associated with periportal necrosis, allyl alcohol model. The experiment is classed as in vivo, mouse (dd strain). Particulars: 250 mg/kg oral 6 h before allyl alcohol 0.075 ml/kg oral; 24 h after. The method, then: The compound of this invention or anethol trithion was orally administered to the male mouse (4 week/old, dd strain) at the dose of 250 mg/kg. Six hours after it, allyl alcohol was orally administered at the dose of 0.075 ml/kg. Twenty four hours after it, the animals were sacrificed to collect blood samples.

Experiment [2] relates to acute liver damage induced by bromobenzene. Nature of the experiment: protective effect on acute liver damage associated with centrilobular necrosis, bromobenzene model. The experiment is classed as in vivo, rat (SD). The procedure:
Bromobenzene (hereinafter abbreviated as BB), Dimethylnitrosamine (hereinafter abbreviated as DMN) and chloroform (hereinafter abbreviated as CF) resemble carbon tetrachloride in inducing liver damage associated with centrilobular necrosis.
Test compound or anethol trithion was orally administered to animal at the dose of 100 mg/kg. Twenty four hours after it (in the case of dimethylnitrosamine, exceptionally fifteen hours after it) the animals were sacrificed and blood samples were collected. Indices of hepatotoxicity adoptable in each chemical were measured, from which the efficacy of the compound was evaluated.
BB male rat 0.75 oral p-GPT activity

Experiment [3] concerns fatty liver induced by ethionine. Nature of the experiment: effect on fatty liver, ethionine model. The experiment is classed as in vivo, mouse (dd-strain). Particulars: 250 mg/kg oral. The source says:
There are known many factors inducing fatty liver. But, the fatty liver is grouped into a couple of patterns from the mechanism of lipid accumulation or metabolism of lipoprotein in the liver. Ethionine is a typical example which induces first pattern of fatty liver. It inhibits RNA and protein synthesis and destroys polysome of the liver cell. Fatty liver is induced by inhibition of the protein synthesis and disturbance of lipoprotein secretion.
Usually, fatty liver is closely related to the accumulation of triglyceride in the liver. In the present example, the degree of fatty liver and protective or therapeutic effect on the fatty liver was evaluated by measurement of triglyceride content in the liver.
The compounds of this invention and methionine were independently dissolved or suspended into olive oil and administered orally to the male mouse (4 week-old dd-strain) at the dose of 250 mg/kg. One hour before it, simultaneously with it or one hour after it, ethionine dissolved in equimolar NaOH solution was administered intraperitoneally at the dose of 200 mg/kg. Twenty four hours after the administration of ethionine, the animals were sacrificed and triglyceride content in the liver was determined by chromotropic acid method.

For experiment [4], the system named is fatty liver induced by carbon tetrachloride. Nature of the experiment: therapeutic effect on fatty liver, carbon tetrachloride model. The experiment is classed as in vivo, rat (SD strain). The method, then:
Carbon tetrachloride also induces fatty liver, but the picture of disease differs from the case of ethionine-induced fatty liver. Carbon tetrachloride is generally considered to damage microsome and thereby to inhibit protein synthesis and induce fatty liver.
Carbon tetrachloride was subcutaneously administered to 36 week-old male rats (SD strain) for 4 days at the dose of 1 ml/kg. The treated animals were left for 3 days after the last administration to maximize the manifestation of fatty liver.
Administration of Compound 4 was commenced on the fourth day after the administration of carbon tetrachloride was completed. It was orally given everyday for 10 days at the dose of 50 or 250 mg/kg. On the 11th day, the animals were sacrificed by exsanguination. The therapeutic effect was evaluated by determining the content of lipid in the liver (triglyceride and total lipid) and examining the histopathological changes. Triglyceride and total lipid were determined colorimetrically by chromotropic acid method and Bragdon's oxidation method, respectively.
Indices for the histopathological change is as follows: […]

Experiment [5] deals with acute liver damage induced by carbon tetrachloride. Nature of the experiment: protective effect on acute liver damage associated with centrilobular necrosis, carbon tetrachloride model. The experiment is classed as in vivo, mouse (dd strain). Particulars: 250 mg/kg oral 6 h before CCl4, 24 h after CCl4. The source says:
Carbon tetrachloride (CCl4) administration induces centrilobular necrosis of the liver associated with loss of diphosphopyridine nucleotide, hepatic glycogen, coenzyme A and increase in neutral fat. Release of several enzymes from the hepatocytes, and increase of enzyme activities in the plasma are recognized as the result of the damage of the liver. A suitable means for evaluating the degree of damage induced by CCl4 or the degree of protection afforded by drugs is to study the plasma glutamic-pyruvic transaminase (p-GPT) activity.
Methods: The test compounds were dissolved or suspended in olive oil and administered orally at the dose of 250 mg/kg to the mice (Four-week-old male mice-dd strain). After 6 hours, CCl4 was administered orally (0.05 ml/kg as olive oil solution). Animals were killed 24 hours after CCl4 administration, and the liver was grossly observed. The plasma was obtained by centrifugation. Activities of p-GPT were determined by the method of Reitman and Frankel and expressed in Karmen units.
Score for liver damage index was as follows:
Each figure indicates average of 5 to 6 mice. Values of p-GPT over 1,000 Karmen unit regarded as 1,000 for calculation of average for convenience.

Experiment [6] concerns alcohol metabolic function of liver. Nature of the experiment: effect on concentration of ethyl alcohol in the blood. The note with it: 250 mg/kg oral 6 h before ethanol 1,000 mg/kg. The class given is in vivo, mouse. The procedure: The test compounds are dissolved or suspended in olive oil and administered orally at the dose of 250 mg/kg to the mice. After 6 hours, 1,000 mg/kg of ethyl alcohol was given orally. Blood was taken in a capillary from caudal vein at the time indicated in the results. The plasma was obtained by centrifugation. The concentration of ethyl alcohol in the plasma was measured by FID type gas liquid chromatography. Five mice were used for each group.

Experiment [7] deals with acute liver damage induced by D-galactosamine. Nature of the experiment: protective effect on acute hepatitis with mesenchymal reaction and discrete lobular necrosis, D-galactosamine model. The experiment is classed as in vivo, rat (SD strain). Particulars: 250 mg/kg oral 6 h before D-galactosamine i.p. The method, then:
D-Galactosamine is a compound which induces a discrete lobular necrosis associated with mesenchymal reaction similar to the change observed in human viral hepatitis, so that it is frequently used in producing a model for viral hepatitis.
The compound of this invention or anethol trithion was administered orally to the male rat (SD strain) at the dose of 250 mg/kg. Six hours after it, D-galactosamine was intraperitoneally administered at the dose of 600 mg/kg. Four hours after it, an additional 300 mg/kg was administered intraperitoneally. Eight hours after it, the animals were sacrificed to collect the blood samples. P-GPT activity and triglyceride in the liver were measured to evaluate the effect of the compound of this invention.

[8] abbreviates: bromobenzene 0.75 ml/kg oral, 100 mg/kg oral 6 h before, 24 h after.
[9] abbreviates: 50 mg/kg oral everyday for 10 days.

As to `CC(C)OC(=O)C(C(=O)OC(C)C)=C1SC=CS1` [Compound 4, diisopropyl 1,3-dithiol-2-ylidene malonate], the BSP was found to be 17 ± 3.2 in experiment [1] and 10.6 ± 4.5 mg/dL in experiment [2] (setting [8]). In experiment [2] (BB, DMN and CF models together, Table 4), the indices of hepatotoxicity entry is listed as “normalized the indices of hepatotoxicity”. Besides, the p-GPT in experiment [2] (setting [8]) worked out at 23 ± 3.7 Karmen unit; in experiment [5] (values over 1,000 taken as 1,000), 36 Karmen units; in experiment [7], 51 ± 15 Karmen unit. The Triglyceride is given as 10.0 ± 1.15 mg/g-liver in experiment [3] (1 hr after ethionine 200 mg/kg i.p.); 9.1 ± 1.15 mg/g-liver in experiment [3] (1 hr before ethionine 200 mg/kg i.p.); 5.4 ± 0.61 mg/g-liver in experiment [3] (simultaneously with (0 hr) ethionine 200 mg/kg i.p.); 37.6 ± 8.5 mg/g-liver in experiment [4] (setting [9]); 23.6 ± 7.0 mg/g-liver in experiment [4] (250 mg/kg, 10 days). The Total lipid in experiment [4] (setting [9]) worked out at 78.6 ± 16.8 mg/g-liver; in experiment [4] (250 mg/kg, 10 days), 64.1 ± 10.2 mg/g-liver. Besides, the “Liver Damage Index” value in experiment [5] (0 normal, 2 slightly recognized, 4 clearly observable, 6 heavy damage, average of 5 to 6 mice) is 0.0. Moreover, the “Concentration of Ethyl alcohol in Plasma” value in experiment [6] (0 min) was 25 ± 12 ppm; in experiment [6] (5 min), 582 ± 143 ppm; in experiment [6] (15 min), 468 ± 30 ppm; in experiment [6] (30 min) it was 220 ± 87 ppm; in experiment [6] (60 min), 29 ± 17 ppm; in experiment [6] (120 min) it was “not detected”. In addition, in experiment [7], the “Triglyceride in the liver” value is on record as 4.4 ± 0.68 mg/g.
